Columns and labels:
[1] = target: T1, α-Synuclein (αS) aggregation (Homo sapiens, UniProt P37840); assay: Spin-down assay / SDS-PAGE of soluble and insoluble αS fractions; format: biochemical; settings: 100 μM αS aggregated four days, indicated molar ratios
[2] = target: T1, α-Synuclein (αS) aggregation; assay: Thioflavin T; format: biochemical; settings: 100 μM αS in 1 × PBS, ligand at equimolar ratio, four days
[3] = test system: UA196 worms (human αS and GFP in DA neurons); assay: Confocal count of healthy DA neurons in UA196 worms, early treatment; format: in vivo, C. elegans; settings: UA196, 50 μM on day two
[4] = test system: NL5901 worms (αS-YFP in body wall muscle cells); assay: Confocal count of αS-YFP inclusions in NL5901 worms; format: in vivo, C. elegans; settings: NL5901, 50 μM on day two
[5] = target: αS (Homo sapiens, UniProt P37840); assay: 2D HSQC; format: binding; settings: 70 μM 15N αS, NS132 equimolar

Compound	Antagonist activity by SDS-PAGE analysis [1]	Effect on αS aggregation, ThT assay [2]	neuroprotective effect on degeneration of DA neurons [3]	number of inclusions [4]	binding site of NS132 on αS (residues with changed amide peaks) [5]	% loss of the total number of DA neurons ([3]; up to 15 days) [%]
Cc1ccc(NC(=O)c2ccc(NC(=O)c3ccc([N+](=O)[O-])c(NCCc4c[nH]c5ccccc45)n3)c(NCC3CCCCC3)n2)c(OCC(=O)OC(C)(C)C)n1 [NS132-P]	poor antagonist of αS aggregation					
Cc1ccc(NC(=O)c2ccc(NC(=O)c3ccc([N+](=O)[O-])c(NCCc4c[nH]c5ccccc45)n3)c(NCC3CCCCC3)n2)c(OCC(=O)O)n1 [NS132]		most potent antagonist	very good neuroprotective effect	decrease in the number of inclusions	residues 10-20, 36-43, and 50,55,59	
Cc1ccc(NC(=O)c2ccc(NC(=O)c3ccc([N+](=O)[O-])c(NCCc4c[nH]c5ccccc45)n3)c(NCC3CCCCC3)n2)c(OCC(=O)NO)n1 [NS163]		potent antagonist of αS aggregation	remarkable neuroprotective effect			< 5

— paper doi:10.1101/2022.07.11.499659v1 (bioRxiv, 2022)
